pIC50: −log10 of the molar value. Converted amounts (≈) assume the structure as drawn.
Legend:
HMC1 = assay: Cytotoxicity against HMC1 cells assessed as reduction in cell viability at 1.8 to 30 uM after 24 hrs by trypan blue assay relative to control; assay type: cell-based; details: human, hmc1, 24 h
SH-SY5Y [1] = assay: Neuroprotective activity against 6-OHDA-induced cell death in human SH-SY5Y cells assessed as apoptotic cells at 0.5 ug/ml pretreated for 1 hr followed by 6-OHDA challenge measured after 24 hrs by propidium iodide/RNase staining based flow cytometry (reference value: 31.56 %); assay type: functional
SH-SY5Y [2] = assay: Neuroprotective activity against 6-OHDA-induced cell death in human SH-SY5Y cells assessed as apoptotic cells at 5 ug/ml pretreated for 1 hr followed by 6-OHDA challenge measured after 24 hrs by propidium iodide/RNase staining based flow cytometry (reference value: 31.56 %); assay type: functional
Rattus norvegicus [3] = assay: Neuroprotective activity in 6-OHDA-induced lesioned Sprague-Dawley rat assessed as increase in TH-immunopositive neurons at 200 mg/kg, ig administered once daily for 15 days measured on day 42 post 6-OHDA lesion induction by immunohistochemical analysis relative to control; assay type: functional
DU-145 [4] = assay: Anti-tumor activity against human DU145 cells xenografted in SCID mouse assessed as tumor volume at 10 mg/kg, po administered once daily for 28 days measured every seven days during compound dosing (reference value: 314 +/- 54.8 mm3); assay type: functional
DU-145 [5] = assay: Anti-tumor activity against human DU145 cells xenografted in SCID mouse assessed as tumor volume at 20 mg/kg, po administered once daily for 28 days measured every seven days during compound dosing (reference value: 314 +/- 54.8 mm3); assay type: functional
DU-145 [6] = assay: Anti-tumor activity against human DU145 cells xenografted in SCID mouse assessed as tumor volume at 30 mg/kg, po administered once daily for 28 days measured every seven days during compound dosing (reference value: 314 +/- 54.8 mm3); assay type: functional
NCI-H460 = assay: Cytotoxicity against human H460 cells assessed as reduction in cell viability at 50 uM after 72 hrs by trypan blue staining based assay relative to control; assay type: functional
[7] = Apparent permeability of the compound; assay type: physicochemical; details: not told
[8] = Tmax in Sprague-Dawley rat at 224 umol/kg, po administered via gastric gavage; assay type: ADME, organism-based; details: in vivo
[9] = (§1) Oral bioavailability in Sprague-Dawley rat at 224 umol/kg administered via gastric gavage; assay type: ADME, organism-based; details: Sprague-Dawley, in vivo, 224 umol/kg
Rattus norvegicus [10] = assay: In vivo inhibition of P-gp in Sprague-Dawley rat assessed as increase in nimodipine AUC at 2 mg/kg, po pretreated for 30 mins followed by nimodipine addition measured after 36 hrs by HPLC method relative to nimodipine alone; assay type: functional
Rattus norvegicus [11] = assay: In vivo inhibition of P-gp in Sprague-Dawley rat assessed as increase in nimodipine AUC at 8 mg/kg, po pretreated for 30 mins followed by nimodipine addition measured after 36 hrs by HPLC method relative to nimodipine alone; assay type: functional
Cytochrome P450 3A4 = Cytochrome P450 3A4 (Homo sapiens, UniProt P08684); assay: Inhibition of human CYP3A4 expressed in baculovirus infected insect cells using 7-benzyloxy-4-trifluoromethylcoumarin as substrate measured after 45 mins in presence of NADPH by spectrofluorometric method; assay type: ADME
Cytochrome P450 3A4, sequence (P08684 whole entry): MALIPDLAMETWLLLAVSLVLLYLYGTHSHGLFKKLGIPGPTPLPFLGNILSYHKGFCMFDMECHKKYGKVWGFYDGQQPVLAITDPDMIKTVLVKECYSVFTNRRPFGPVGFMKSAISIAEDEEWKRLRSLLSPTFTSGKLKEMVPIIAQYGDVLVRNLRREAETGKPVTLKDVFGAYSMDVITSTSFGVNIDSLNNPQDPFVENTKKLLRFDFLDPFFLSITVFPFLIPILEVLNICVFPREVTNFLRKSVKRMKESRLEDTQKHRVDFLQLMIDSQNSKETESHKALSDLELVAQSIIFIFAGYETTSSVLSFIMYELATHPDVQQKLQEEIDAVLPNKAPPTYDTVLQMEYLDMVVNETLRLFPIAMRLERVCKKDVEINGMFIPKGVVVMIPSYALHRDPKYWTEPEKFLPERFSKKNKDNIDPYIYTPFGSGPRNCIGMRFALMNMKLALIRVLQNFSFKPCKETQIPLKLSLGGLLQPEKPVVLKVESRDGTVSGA

Rattus norvegicus [12] = assay: In vivo inhibition of P-gp in Sprague-Dawley rat assessed as increase in cyclosporine Cmax at 112 uM/kg, po administered via gastric gavage coadministered with 2.5 mg/kg cyclosporine measured after 720 to 1440 mins by monoclonal fluorescence polarization assay relative to control; assay type: functional; parameters: scale not given: the % may be the effect or the level left
Rattus norvegicus [13] = assay: In vivo inhibition of P-gp in Sprague-Dawley rat assessed as increase in cyclosporine AUC at 112 uM/kg, po administered via gastric gavage coadministered with 2.5 mg/kg cyclosporine measured after 720 to 1440 mins by monoclonal fluorescence polarization assay relative to control; assay type: functional; parameters: scale not given: the % may be the effect or the level left
Rattus norvegicus [14] = assay: In vivo inhibition of CYP3A4 in Sprague-Dawley rat assessed as increase in cyclosporine Cmax at 112 uM/kg, po administered via gastric gavage coadministered with 2.5 mg/kg cyclosporine measured after 720 to 1440 mins by monoclonal fluorescence polarization assay relative to control; assay type: ADME, organism-based; parameters: scale not given: the % may be the effect or the level left
Rattus norvegicus [15] = assay: In vivo inhibition of CYP3A4 in Sprague-Dawley rat assessed as increase in cyclosporine AUC at 112 uM/kg, po administered via gastric gavage coadministered with 2.5 mg/kg cyclosporine measured after 720 to 1440 mins by monoclonal fluorescence polarization assay relative to control; assay type: ADME, organism-based; parameters: scale not given: the % may be the effect or the level left
Mus musculus [16] = assay: Anti-inflammatory activity in adjuvant-induced C57BL/6 mouse arthritis model assessed as reduction in ankle swelling by measuring splenic Th17 cell population expansion at 100 mg/kg, ip administered once daily for 1 week starting from 14 days post-immunization measured by flow cytometry relative to control; assay type: functional; parameters: scale not given: the % may be the effect or the level left
Mus musculus [17] = assay: Antiinflammatory activity in dextran sodium sulphate-induced C57BL/6 mouse colitis model assessed as disease activity index at 100 mg/kg, ig administered once daily pretreated for 3 days followed by DSS challenge and subsequent treatment for 7 days measured 24 hrs post last dose (reference value: 5.67 +/- 1.03); assay type: functional
Rattus norvegicus [18] = assay: Anti-hyperplasia activity in carotid arterial balloon-injury-induced Sprague-Dawley rat neointimal hyperplasia model assessed as reduction in thickness of left carotid artery by measuring intima to media thickness ratio at 70 mg/kg administered once daily via gastric gavage from 3 days before balloon injury to 28 days after the injury measured post last dose by haematoxylin/eosin staining based assay relative to control; assay type: functional; parameters: scale not given: the % may be the effect or the level left
Mus musculus [19] = assay: Anti-inflammatory activity in proteolipid protein 139-151/complete freund's adjuvant-induced SJL/J mouse autoimmune encephalomyelitis model assessed as reduction in clinical score at 5 to 10 mg/kg, ip administered once daily pretreated for 1 day followed by immunization and subsequent treatment for 3 days measured up to 6 days; assay type: functional
[20] = Solubility of the compound in water; assay type: physicochemical; details: buffer
Rattus norvegicus [21] = assay: as §1; assay type: ADME, organism-based; details: in vivo
Rattus norvegicus [22] = assay: In vivo inhibition of P-gp in Sprague-Dawley rat assessed as increase in cyclosporine Cmax at 112 uM/kg, po administered via gastric gavage coadministered with 2.5 mg/kg cyclosporine measured after 540 mins by monoclonal fluorescence polarization assay relative to control; assay type: functional; parameters: scale not given: the % may be the effect or the level left
Rattus norvegicus [23] = assay: In vivo inhibition of P-gp in Sprague-Dawley rat assessed as increase in cyclosporine AUC at 112 uM/kg, po administered via gastric gavage coadministered with 2.5 mg/kg cyclosporine measured after 540 mins by monoclonal fluorescence polarization assay relative to control; assay type: functional; parameters: scale not given: the % may be the effect or the level left
Rattus norvegicus [24] = assay: In vivo inhibition of CYP3A4 in Sprague-Dawley rat assessed as increase in cyclosporine Cmax at 112 uM/kg, po administered via gastric gavage coadministered with 2.5 mg/kg cyclosporine measured after 540 mins by monoclonal fluorescence polarization assay relative to control; assay type: ADME, organism-based; parameters: scale not given: the % may be the effect or the level left; details: 9 h
Rattus norvegicus [25] = assay: In vivo inhibition of CYP3A4 in Sprague-Dawley rat assessed as increase in cyclosporine AUC at 112 uM/kg, po administered via gastric gavage coadministered with 2.5 mg/kg cyclosporine measured after 540 mins by monoclonal fluorescence polarization assay relative to control; assay type: ADME, organism-based; parameters: scale not given: the % may be the effect or the level left; details: 9 h
Rattus norvegicus [26] = assay: In vivo inhibition of CYP1A2 in Sprague-Dawley rat assessed as increase in unbound phenacetin level in plasma at 450 mg/kg, iv coadministered with phenacetin by UV-HPLC method relative to phenacetin alone; assay type: ADME, organism-based

O=c1cc(-c2ccccc2)oc2cc(O)c(O)c(O)c12 [BAICALEIN]
Activity (HMC1): 93 to 95% | Activity (SH-SY5Y [1]): 18.9% | Activity (SH-SY5Y [2]): 21.61% | Activity (Rattus norvegicus [3]): 265.52% | Activity (DU-145 [4]): 144.5 mm3 | Activity (DU-145 [5]): 114.2 mm3 | Activity (DU-145 [6]): 183 mm3 | Activity (NCI-H460): 42% | Papp [7]: 17 ×10⁻⁶ cm/s | Tmax [8]: 0.167 h | bioavailability [9]: 0% | fold change (FC) (Rattus norvegicus [10]): 1.4 | fold change (FC) (Rattus norvegicus [11]): 1.6 | pIC50 (Cytochrome P450 3A4): 5.04 | Activity (Rattus norvegicus [12]): 87.5% | Activity (Rattus norvegicus [13]): 150.2% | Activity (Rattus norvegicus [14]): 87.5% | Activity (Rattus norvegicus [15]): 150.2%

O=C(O)[C@H]1O[C@@H](Oc2cc3oc(-c4ccccc4)cc(=O)c3c(O)c2O)[C@H](O)[C@@H](O)[C@@H]1O [BAICALIN]
Activity (Mus musculus [16]): 40% | Activity_index (Mus musculus [17]): 3.03 | Activity (Rattus norvegicus [18]): 55% | Activity (Mus musculus [19]): 2.2 | solubility [20]: 52 µg/mL (≈ 116 µM) | Papp [7]: 0.037 ×10⁻⁶ cm/s | Tmax [8]: 6.6 h | F (Rattus norvegicus [21]): 62% | Activity (Rattus norvegicus [22]): 408.1% | Activity (Rattus norvegicus [23]): 685.3% | Activity (Rattus norvegicus [24]): 408.1% | Activity (Rattus norvegicus [25]): 685.3% | fold change (FC) (Rattus norvegicus [26]): 2

Source: ChEMBL document CHEMBL4038271, “Therapeutic potentials of baicalin and its aglycone, baicalein against inflammatory disorders” (Eur J Med Chem, 2017)
